# How the values were obtained:
# Experiment in all cases: KINOMEscan
# Format in all cases: binding
# Details in all cases: read-out: % control activity remaining
# AURKA = molecular target: T1, AURKA (Homo sapiens, UniProt O14965)
# T1 construct: purchased Eurofins DiscoverX KINOMEscan
# T1 sequence (O14965 1-403): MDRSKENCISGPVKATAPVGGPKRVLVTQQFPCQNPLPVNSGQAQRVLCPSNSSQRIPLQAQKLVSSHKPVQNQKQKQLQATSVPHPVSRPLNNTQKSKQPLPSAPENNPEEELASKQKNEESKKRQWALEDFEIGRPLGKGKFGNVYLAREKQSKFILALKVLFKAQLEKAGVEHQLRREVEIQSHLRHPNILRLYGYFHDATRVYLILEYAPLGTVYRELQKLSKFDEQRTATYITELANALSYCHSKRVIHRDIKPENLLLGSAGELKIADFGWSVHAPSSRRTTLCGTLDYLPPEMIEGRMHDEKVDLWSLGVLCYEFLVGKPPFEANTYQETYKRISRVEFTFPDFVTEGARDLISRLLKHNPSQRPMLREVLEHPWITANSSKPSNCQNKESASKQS
# BRAF(V600E) = molecular target: T2, BRAF(V600E) (Homo sapiens, UniProt P15056, V600E)
# T2 construct: purchased Eurofins DiscoverX KINOMEscan
# T2 sequence (P15056 whole entry V600E): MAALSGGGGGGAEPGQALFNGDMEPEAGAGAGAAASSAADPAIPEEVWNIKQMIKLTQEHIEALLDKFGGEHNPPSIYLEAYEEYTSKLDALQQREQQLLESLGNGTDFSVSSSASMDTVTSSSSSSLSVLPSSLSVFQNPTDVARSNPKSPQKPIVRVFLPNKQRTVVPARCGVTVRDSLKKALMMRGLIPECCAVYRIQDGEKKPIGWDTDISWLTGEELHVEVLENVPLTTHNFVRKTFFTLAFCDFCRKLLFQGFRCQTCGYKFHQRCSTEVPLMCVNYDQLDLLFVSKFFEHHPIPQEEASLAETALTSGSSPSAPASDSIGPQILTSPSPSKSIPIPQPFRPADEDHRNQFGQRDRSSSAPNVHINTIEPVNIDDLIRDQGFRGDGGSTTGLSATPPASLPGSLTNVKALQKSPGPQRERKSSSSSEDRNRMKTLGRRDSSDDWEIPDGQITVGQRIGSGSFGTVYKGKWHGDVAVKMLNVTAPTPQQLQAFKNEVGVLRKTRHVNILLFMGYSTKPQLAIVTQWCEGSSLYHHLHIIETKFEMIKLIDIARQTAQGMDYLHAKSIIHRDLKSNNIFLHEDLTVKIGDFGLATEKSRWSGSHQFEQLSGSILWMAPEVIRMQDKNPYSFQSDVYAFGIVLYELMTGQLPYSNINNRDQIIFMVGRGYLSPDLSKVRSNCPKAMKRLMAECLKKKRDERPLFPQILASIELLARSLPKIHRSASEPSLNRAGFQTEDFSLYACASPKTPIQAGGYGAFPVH
# CAMK2D = molecular target: T3, CAMK2D (Homo sapiens, UniProt Q13557)
# T3 construct: purchased Eurofins DiscoverX KINOMEscan
# T3 sequence (Q13557 whole entry): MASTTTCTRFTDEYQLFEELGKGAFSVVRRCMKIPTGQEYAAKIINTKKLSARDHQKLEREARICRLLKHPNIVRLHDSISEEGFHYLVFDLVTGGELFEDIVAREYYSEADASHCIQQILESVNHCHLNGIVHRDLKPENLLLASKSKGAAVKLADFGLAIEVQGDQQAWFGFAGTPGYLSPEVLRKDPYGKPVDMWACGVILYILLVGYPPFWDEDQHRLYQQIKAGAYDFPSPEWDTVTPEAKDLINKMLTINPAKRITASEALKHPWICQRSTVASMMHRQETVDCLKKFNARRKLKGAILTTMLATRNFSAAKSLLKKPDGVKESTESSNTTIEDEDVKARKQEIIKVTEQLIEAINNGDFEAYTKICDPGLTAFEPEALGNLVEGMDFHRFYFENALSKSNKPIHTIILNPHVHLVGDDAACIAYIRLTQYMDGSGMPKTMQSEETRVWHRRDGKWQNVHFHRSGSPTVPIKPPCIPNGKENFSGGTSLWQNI
# CDKL3 = molecular target: T4, CDKL3 (Homo sapiens, UniProt Q8IVW4)
# T4 construct: purchased Eurofins DiscoverX KINOMEscan
# T4 sequence (Q8IVW4 whole entry): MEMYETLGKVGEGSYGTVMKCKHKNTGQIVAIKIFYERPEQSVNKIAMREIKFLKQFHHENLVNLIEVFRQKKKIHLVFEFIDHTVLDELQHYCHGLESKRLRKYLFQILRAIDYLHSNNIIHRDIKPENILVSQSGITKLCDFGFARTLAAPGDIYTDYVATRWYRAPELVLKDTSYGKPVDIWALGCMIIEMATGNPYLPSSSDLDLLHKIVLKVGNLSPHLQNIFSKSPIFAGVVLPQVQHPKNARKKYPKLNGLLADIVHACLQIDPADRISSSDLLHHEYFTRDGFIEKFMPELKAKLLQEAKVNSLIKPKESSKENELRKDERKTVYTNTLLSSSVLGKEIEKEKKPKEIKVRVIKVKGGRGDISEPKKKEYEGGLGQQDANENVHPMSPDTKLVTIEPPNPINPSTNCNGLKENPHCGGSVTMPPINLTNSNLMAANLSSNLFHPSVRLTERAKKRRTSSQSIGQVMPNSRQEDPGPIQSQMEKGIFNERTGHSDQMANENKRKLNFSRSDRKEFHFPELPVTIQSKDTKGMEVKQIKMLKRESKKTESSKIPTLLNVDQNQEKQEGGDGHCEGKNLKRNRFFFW
# EGFR(L747-T751del,Sins) = molecular target: T5, EGFR(L747-T751del,Sins) (Homo sapiens, UniProt P00533, DEL747-750/T751S)
# T5 construct: purchased Eurofins DiscoverX KINOMEscan
# T5 sequence (P00533 with tags, fused parts or gaps DEL747-750/T751S limits assumed): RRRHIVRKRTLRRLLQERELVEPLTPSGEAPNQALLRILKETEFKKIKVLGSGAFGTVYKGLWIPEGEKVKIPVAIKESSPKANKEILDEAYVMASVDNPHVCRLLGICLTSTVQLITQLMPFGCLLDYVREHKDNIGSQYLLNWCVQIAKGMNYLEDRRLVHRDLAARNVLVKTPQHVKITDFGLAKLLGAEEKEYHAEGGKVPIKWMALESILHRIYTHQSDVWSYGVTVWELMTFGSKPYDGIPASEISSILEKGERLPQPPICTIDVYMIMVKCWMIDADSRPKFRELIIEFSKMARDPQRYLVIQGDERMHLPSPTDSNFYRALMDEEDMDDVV
# EGFR(L858R,T790M) = molecular target: T6, EGFR(L858R,T790M) (Homo sapiens, UniProt P00533, L858R/T790M)
# T6 construct: purchased Eurofins DiscoverX KINOMEscan
# T6 sequence (P00533 25-1210 T790M/L858R limits assumed): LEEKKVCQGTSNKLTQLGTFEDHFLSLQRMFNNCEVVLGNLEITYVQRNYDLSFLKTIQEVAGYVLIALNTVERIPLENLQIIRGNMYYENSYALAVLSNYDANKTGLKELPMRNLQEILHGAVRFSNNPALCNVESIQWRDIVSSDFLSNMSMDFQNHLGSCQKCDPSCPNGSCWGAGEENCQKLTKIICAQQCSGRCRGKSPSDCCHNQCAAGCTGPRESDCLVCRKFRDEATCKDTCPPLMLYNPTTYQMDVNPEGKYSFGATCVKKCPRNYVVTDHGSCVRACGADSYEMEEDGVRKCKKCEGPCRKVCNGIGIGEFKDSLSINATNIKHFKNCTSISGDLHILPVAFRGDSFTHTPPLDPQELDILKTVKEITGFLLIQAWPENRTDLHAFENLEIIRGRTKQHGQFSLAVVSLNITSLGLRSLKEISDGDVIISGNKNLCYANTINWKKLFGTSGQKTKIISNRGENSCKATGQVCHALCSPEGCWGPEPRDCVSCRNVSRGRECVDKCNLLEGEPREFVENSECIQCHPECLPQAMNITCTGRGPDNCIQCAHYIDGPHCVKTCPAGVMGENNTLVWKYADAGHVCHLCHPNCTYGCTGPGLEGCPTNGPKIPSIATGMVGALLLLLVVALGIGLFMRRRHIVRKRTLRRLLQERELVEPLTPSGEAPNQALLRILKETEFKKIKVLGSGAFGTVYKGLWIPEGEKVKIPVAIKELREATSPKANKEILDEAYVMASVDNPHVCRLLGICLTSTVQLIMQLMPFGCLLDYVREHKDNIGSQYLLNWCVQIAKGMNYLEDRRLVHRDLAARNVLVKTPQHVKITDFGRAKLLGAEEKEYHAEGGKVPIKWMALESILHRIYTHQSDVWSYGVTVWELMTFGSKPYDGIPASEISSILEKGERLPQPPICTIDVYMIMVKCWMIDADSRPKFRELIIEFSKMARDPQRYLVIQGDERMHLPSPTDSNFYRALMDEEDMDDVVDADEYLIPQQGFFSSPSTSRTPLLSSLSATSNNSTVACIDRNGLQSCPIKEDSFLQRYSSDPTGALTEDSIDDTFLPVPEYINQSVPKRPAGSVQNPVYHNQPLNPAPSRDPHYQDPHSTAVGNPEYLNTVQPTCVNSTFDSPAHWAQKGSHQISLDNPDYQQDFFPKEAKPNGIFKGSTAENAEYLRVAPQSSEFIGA
# EPHB3 = molecular target: T7, EPHB3 (Homo sapiens, UniProt P54753)
# T7 construct: purchased Eurofins DiscoverX KINOMEscan
# T7 sequence (P54753 34-998): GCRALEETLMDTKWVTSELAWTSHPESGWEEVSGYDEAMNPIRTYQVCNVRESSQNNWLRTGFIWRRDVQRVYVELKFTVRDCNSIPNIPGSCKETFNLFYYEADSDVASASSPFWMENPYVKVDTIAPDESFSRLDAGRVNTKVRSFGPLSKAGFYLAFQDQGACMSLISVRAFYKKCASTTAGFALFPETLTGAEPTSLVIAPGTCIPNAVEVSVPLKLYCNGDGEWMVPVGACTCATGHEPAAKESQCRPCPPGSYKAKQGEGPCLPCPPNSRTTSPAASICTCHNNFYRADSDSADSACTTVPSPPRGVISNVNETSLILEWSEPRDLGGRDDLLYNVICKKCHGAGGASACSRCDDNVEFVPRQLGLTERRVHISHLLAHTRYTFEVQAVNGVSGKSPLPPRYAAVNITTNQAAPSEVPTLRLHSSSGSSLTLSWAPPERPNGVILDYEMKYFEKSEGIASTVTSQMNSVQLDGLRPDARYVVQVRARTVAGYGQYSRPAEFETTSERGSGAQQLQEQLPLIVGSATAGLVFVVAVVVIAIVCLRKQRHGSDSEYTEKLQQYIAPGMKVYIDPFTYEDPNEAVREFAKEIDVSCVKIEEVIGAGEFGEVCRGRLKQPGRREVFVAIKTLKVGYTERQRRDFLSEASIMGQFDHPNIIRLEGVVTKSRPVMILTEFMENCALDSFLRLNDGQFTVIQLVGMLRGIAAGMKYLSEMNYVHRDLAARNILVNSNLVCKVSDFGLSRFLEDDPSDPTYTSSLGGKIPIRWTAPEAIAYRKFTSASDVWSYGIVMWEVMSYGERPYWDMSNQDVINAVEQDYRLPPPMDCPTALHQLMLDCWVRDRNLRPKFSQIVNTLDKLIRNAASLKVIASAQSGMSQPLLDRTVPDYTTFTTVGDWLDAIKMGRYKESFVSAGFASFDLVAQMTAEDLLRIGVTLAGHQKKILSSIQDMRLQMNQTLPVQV
# MAPKAPK2 = molecular target: T8, MAPKAPK2 (Homo sapiens, UniProt P49137)
# T8 construct: purchased Eurofins DiscoverX KINOMEscan
# NEK9 = molecular target: T9, NEK9 (Homo sapiens, UniProt Q8TD19)
# T9 construct: purchased Eurofins DiscoverX KINOMEscan
# T9 sequence (Q8TD19 1-979): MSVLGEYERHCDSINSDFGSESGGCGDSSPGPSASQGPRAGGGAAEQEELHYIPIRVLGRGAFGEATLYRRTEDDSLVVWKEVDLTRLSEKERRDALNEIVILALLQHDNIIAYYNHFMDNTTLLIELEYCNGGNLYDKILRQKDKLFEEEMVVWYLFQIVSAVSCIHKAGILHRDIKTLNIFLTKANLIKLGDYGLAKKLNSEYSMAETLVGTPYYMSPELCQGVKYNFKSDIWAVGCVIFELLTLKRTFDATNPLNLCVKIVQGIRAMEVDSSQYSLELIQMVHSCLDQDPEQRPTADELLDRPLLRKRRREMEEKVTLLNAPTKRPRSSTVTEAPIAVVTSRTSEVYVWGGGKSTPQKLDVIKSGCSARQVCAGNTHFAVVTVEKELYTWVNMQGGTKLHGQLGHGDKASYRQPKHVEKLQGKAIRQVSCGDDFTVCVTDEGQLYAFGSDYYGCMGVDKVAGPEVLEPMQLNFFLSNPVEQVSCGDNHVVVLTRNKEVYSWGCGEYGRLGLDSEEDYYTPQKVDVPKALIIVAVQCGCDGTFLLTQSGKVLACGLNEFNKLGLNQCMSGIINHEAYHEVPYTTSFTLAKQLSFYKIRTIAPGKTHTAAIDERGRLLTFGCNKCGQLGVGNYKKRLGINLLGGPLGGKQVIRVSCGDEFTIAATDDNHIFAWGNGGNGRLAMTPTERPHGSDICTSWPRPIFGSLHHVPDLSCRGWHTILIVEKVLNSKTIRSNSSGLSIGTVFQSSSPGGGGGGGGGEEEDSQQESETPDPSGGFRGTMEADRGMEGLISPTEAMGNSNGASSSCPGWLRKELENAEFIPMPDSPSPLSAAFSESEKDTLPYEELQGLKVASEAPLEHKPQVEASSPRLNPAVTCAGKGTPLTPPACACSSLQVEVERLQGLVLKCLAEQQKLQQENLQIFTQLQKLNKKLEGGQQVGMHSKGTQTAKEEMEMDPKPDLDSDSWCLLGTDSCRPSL
# PIK3CB = molecular target: T10, PIK3CB (Homo sapiens, UniProt P42338)
# T10 construct: purchased Eurofins DiscoverX KINOMEscan
# STK35 = molecular target: T11, STK35 (Homo sapiens, UniProt Q8TDR2)
# T11 construct: purchased Eurofins DiscoverX KINOMEscan
# T11 sequence (Q8TDR2 whole entry): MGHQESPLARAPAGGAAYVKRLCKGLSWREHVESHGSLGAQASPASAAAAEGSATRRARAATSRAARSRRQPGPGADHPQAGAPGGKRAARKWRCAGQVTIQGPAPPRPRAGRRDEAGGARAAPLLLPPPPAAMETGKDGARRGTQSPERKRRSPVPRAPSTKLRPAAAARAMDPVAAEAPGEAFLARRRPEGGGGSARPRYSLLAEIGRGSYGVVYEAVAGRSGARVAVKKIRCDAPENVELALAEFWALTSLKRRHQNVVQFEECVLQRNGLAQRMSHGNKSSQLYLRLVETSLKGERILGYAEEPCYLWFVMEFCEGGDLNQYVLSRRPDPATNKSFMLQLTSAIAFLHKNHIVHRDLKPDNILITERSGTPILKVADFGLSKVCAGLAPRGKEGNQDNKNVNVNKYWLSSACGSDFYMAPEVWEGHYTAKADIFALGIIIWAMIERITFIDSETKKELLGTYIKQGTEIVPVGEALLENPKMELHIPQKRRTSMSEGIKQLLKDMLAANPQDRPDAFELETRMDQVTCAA
# TIE2 = molecular target: T12, TIE2 (Homo sapiens, UniProt Q02763)
# T12 construct: purchased Eurofins DiscoverX KINOMEscan
# T12 sequence (Q02763 23-1124): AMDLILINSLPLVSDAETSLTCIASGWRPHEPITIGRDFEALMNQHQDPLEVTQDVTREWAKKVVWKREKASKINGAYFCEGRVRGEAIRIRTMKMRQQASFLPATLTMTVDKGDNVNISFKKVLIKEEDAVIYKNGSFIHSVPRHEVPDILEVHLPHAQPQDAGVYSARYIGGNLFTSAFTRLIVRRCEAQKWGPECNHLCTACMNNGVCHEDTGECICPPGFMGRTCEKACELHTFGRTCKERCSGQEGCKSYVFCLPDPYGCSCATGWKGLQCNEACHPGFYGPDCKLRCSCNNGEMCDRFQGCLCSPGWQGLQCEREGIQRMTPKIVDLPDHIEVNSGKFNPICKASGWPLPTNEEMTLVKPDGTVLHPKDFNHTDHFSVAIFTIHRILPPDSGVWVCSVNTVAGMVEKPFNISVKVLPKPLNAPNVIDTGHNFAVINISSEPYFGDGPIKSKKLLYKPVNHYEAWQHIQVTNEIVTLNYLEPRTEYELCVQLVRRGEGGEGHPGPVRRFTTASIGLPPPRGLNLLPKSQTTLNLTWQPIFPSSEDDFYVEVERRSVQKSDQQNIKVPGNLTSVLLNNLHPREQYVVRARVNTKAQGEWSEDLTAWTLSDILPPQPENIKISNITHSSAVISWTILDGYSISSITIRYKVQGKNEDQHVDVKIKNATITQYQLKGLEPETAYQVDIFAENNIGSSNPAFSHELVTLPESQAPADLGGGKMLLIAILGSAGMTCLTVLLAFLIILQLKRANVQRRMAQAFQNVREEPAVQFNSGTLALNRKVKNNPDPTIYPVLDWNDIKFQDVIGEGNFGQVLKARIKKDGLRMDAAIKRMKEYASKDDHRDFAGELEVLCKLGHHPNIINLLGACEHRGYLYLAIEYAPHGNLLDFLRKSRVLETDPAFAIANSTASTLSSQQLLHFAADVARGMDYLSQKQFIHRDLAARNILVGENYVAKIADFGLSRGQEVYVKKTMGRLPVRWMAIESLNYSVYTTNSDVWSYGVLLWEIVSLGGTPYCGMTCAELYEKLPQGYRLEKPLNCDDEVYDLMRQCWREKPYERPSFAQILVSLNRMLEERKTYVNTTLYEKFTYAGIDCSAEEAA
structure (smiles),measurement,setting,value
"Clc1cc(NCC2CC2)c2ncc(-c3ccc4[nH]ncc4c3)n2n1 [compound 2, 6-Chloro-N-(cyclopropylmethyl)-3-(1H-indazol-5-yl)imidazo[1,2-b]pyridazin-8-amine]",remaining binding at 1 µM,AURKA,90%
same,remaining binding at 1 µM,BRAF(V600E),99%
same,remaining binding at 1 µM,CAMK2D,97%
same,remaining binding at 1 µM,CDKL3,100%
same,remaining binding at 1 µM,"EGFR(L747-T751del,Sins)",88%
same,remaining binding at 1 µM,"EGFR(L858R,T790M)",82%
same,remaining binding at 1 µM,EPHB3,82%
same,remaining binding at 1 µM,MAPKAPK2,92%
same,remaining binding at 1 µM,NEK9,100%
same,remaining binding at 1 µM,PIK3CB,82%
same,remaining binding at 1 µM,STK35,77%
same,remaining binding at 1 µM,TIE2,78%
O=C(CN1CCOCC1)N[C@H]1CC[C@H](Nc2cc(Cl)nn3c(-c4ccc5[nH]ncc5c4)cnc23)CC1 [compound 26],remaining binding at 1 µM,AURKA,98%
same,remaining binding at 1 µM,BRAF(V600E),89%
same,remaining binding at 1 µM,CAMK2D,62%
same,remaining binding at 1 µM,CDKL3,88%
same,remaining binding at 1 µM,"EGFR(L747-T751del,Sins)",96%
same,remaining binding at 1 µM,"EGFR(L858R,T790M)",90%
same,remaining binding at 1 µM,EPHB3,88%
same,remaining binding at 1 µM,MAPKAPK2,100%
same,remaining binding at 1 µM,NEK9,91%
same,remaining binding at 1 µM,PIK3CB,93%
same,remaining binding at 1 µM,STK35,97%
same,remaining binding at 1 µM,TIE2,89%
"CN1CCC(CNc2cc(Cl)nn3c(-c4cc5nc(Nc6ccccc6)[nH]c5cc4F)cnc23)CC1 [compound 31, 6-Chloro-3-(6-fluoro-2-(phenylamino)-1H-benzo[d]imidazol-5-yl)-N-((1-methylpiperidin-4-yl)methyl)imidazo[1,2-b]pyridazin-8-amine]",remaining binding at 1 µM,AURKA,75%
same,remaining binding at 1 µM,BRAF(V600E),98%
same,remaining binding at 1 µM,CAMK2D,100%
same,remaining binding at 1 µM,CDKL3,90%
same,remaining binding at 1 µM,"EGFR(L747-T751del,Sins)",92%
same,remaining binding at 1 µM,"EGFR(L858R,T790M)",100%
same,remaining binding at 1 µM,EPHB3,92%
same,remaining binding at 1 µM,MAPKAPK2,100%
same,remaining binding at 1 µM,NEK9,100%
same,remaining binding at 1 µM,PIK3CB,97%
same,remaining binding at 1 µM,STK35,100%
same,remaining binding at 1 µM,TIE2,91%
